Results on two compounds are retold here after patent publication US12391677B2, “Thyroid hormone receptor agonists” (INVENTISBIO CO., LTD., priority 2018, dated 2025).

As a reminder, the pEC50 is the negative decadic logarithm of the EC50, by convention in mol/L. By CLint scaled is commonly meant the capacity of the preparation to metabolise the compound, expressed as a volume cleared per time. What is called half-life is the time in which the quantity being followed falls by half. The term hepatocyte CLint denotes a measure of how fast metabolising enzymes remove a compound, apart from limits set by blood flow.

The target of series [1] is ligand binding domain of thyroid hormone receptor beta (Homo sapiens (Human), UniProt P10828). The experiment in a line: Thyroid hormone receptor TR-FRET binding assay (TRβ LBD). The settings on record: TRβ LBD 2 nM. On the procedure: (§1) TR-FRET binding assay was used to test representative compounds herein.
(§2) The ligand binding domain of thyroid hormone receptor alpha and the ligand binding domain of thyroid hormone receptor beta with GST tag were purchased from Invitrogen. Biotin-SRC2-2 coactivator peptide was purchased from Sangon Biotech, Europium anti-GST and Streptavidin-D2 was from Cisbio.
(§3) Five microliters of 4× compound serial dilution was added in the 384-well plate, white, low volume, round-bottom assay plate. […] Centrifuge the assay plates at 1000 g for 1 min and incubate 1 hr at RT, protected from light. […] Calculate EC50 by fitting % Activity values and log of compound concentrations to nonlinear regression (dose response—variable slope) with Graphpad 5.0.
For orientation: TR-FRET usually uses a lanthanide donor and a delayed reading to cut background.

The target in series [2] is ligand binding domain of thyroid hormone receptor alpha (Homo sapiens (Human), UniProt P10827). The experiment in a line: Thyroid hormone receptor TR-FRET binding assay (TRα LBD). The following applies: TRα LBD 4 nM. The procedure:
as §1, §2, §3

Series [3] addresses TRβ-GAL4 binding domain chimeric receptors (Homo sapiens (Human), UniProt P10828). The series can be described thus: Thyroid hormone receptor cell assay (GAL4 luciferase reporter in HEK293-LUC cells). The format is cell-based. An excerpt: TRα-LBD or TRβ-LBD, coding sequence was inserted into pBIND expression vector (Promega, E1581) to express TRβ-GAL4 binding domain chimeric receptors. This expression vector was transfected into HEK293-LUC host cells with reporter vector (pGL4.35 which carry a stably integrated GAL4 promoter driven luciferase reporter gene). Upon agonist binding to the corresponding TRa-GAL4 or TRb-GAL4 chimeric receptor, the chimeric receptor binds to the GAL4 binding sites and stimulates the reporter gene.
Seed 2.5×10^6 HEK293-LUC cells into a 60 mm dish and incubated for 16 h at 37° C. under 5% CO2 atmosphere. Mix 12 microliters of Lipo LTX reagent in 250 microliters of Opti-MEM Medium by inversion. Mix 6 ug of DNA in 250 uL of Opti-MEM medium, then add 6 uL of Lipo PLUS Reagent. Add diluted DNA to each tube of diluted Lipo LTX Reagent (1:1 ratio), and mix by Pipettor and incubate at room temperature for 10 min. The reagent mixture was added to a 60 mm dish, incubated with cells for 4-7 h at 37 degrees under 5% CO2 atmosphere.
75 nL compound was added into 384 well assay plate using ECHO550 and then add HEK293-LUC cells (transfected, 17,000 cells/well) into the plate using phenol red-free DMEM containing 5% charcoal/dextran-treated FBS and incubated for 16-20 h at […] under 5% CO2 atmosphere. Add 25 uL of Steady-Glo Luciferase Assay Reagent into each well. Shake for 5 min and then record the luminescence value on Envision 2104 plate reader.
A general note: Reporter assays use an easily measured gene product as a stand-in for the process of interest.

Series [4] is described as follows: Human hepatocyte clearance study. The format is in vitro ADME. The settings on record: human, hepatocytes; for Human Hepatocyte Remaining Percentage @ 120 min: 2 h. The procedure: The in vitro human hepatocyte clearance of compounds described here was studied using pooled human hepatocytes purchased from BioreclamationIVT (Westbury, NY, Cat # X008001, Lot # TQJ). The assay was conducted according to manufacturer's instruction. Briefly, 10 mM stock solutions of test compounds and positive control (Verapamil) were prepared in 100% DMSO. […] Incubation media is made of Williams E medium supplemented with 1×GlutaMax. Both thawing medium and incubation medium (serum-free) were placed in a 37° C. water bath for at least 15 minutes prior to use. […] Verapamil was use as a positive control in the assay. Vials of cryopreserved hepatocytes were removed from storage and thawed in a 37° C. water bath with gentle shaking. Contents of the vial were poured into the 50 mL thawing medium conical tube. Vials were centrifuged at 100 g for 10 minutes at room temperature. […] Hepatocyte viability and density were counted using a Trypan Blue exclusion, and then cells were diluted with serum-free incubation medium to a working cell density of 0.5×10^6 viable cells/mL. Then, a portion of the hepatocytes at 0.5×10^6 viable cells/mL was boiled for 5 minutes prior to adding to the plate as negative control to eliminate the enzymatic activity so that little or no substrate turnover should be observed. The boiled hepatocytes were used to prepare negative samples. Aliquots of 198 μL hepatocytes were dispensed into each well of a 96-well non-coated plate. The plate was placed in the incubator on an orbital shaker at 500 rpm for approximately 10 minutes. […] This assay was performed in duplicate. The plate was incubated in the incubator on an orbital shaker at 500 rpm for the designated time points. Twenty-five microliter of contents were transferred and mixed with 6 volumes (150 μL) of cold acetonitrile with IS (200 nM imipramine, 200 nM labetalol and 200 nM diclofenac) to terminate the reaction at time points of 0, 15, 30, 60, 90 and 120 minutes. […] For data analysis, all calculations were carried out using Microsoft Excel. Peak areas were determined from extracted ion chromatograms. The in vitro half-life (t1/2) of parent compound was determined by regression analysis of the percent parent disappearance vs. time curve. […] Conversion of the in vitro t1/2 (in minutes) into the scale-up unbound intrinsic clearance (scaled-up unbound CLint, in mL/min/kg) was done using the following equation (mean of duplicate determinations): Scaled-up unbound CLint=kV/N×scaling factor, where V=incubation volume (0.5 mL); N=number of hepatocytes per well (0.25×10^6 cells).

pEC50: −log10 of the molar value.

ligand binding domain of thyroid hormone receptor alpha, sequence (P10827 other isoform, or with tags, fused parts or gaps del 1-162, other chains not shown): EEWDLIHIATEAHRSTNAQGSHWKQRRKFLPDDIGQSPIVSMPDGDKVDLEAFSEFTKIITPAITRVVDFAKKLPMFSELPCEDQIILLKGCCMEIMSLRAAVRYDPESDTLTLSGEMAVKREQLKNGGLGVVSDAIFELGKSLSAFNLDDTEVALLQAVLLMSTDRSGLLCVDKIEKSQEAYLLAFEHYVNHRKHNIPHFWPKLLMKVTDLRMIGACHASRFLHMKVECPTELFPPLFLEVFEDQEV
ligand binding domain of thyroid hormone receptor beta, sequence (P10828 217-461): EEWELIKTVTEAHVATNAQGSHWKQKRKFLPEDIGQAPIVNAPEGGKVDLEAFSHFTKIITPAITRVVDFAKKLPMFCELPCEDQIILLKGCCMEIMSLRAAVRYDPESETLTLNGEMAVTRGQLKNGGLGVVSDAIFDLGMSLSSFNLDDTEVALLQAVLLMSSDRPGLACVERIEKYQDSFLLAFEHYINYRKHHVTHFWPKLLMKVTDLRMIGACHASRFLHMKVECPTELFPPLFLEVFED
TRβ-GAL4 binding domain chimeric receptors, sequence (P10828 217-461, stated change not applied): as the sequence (P10828 217-461) above

Turning to `N#Cc1nn(-c2cc(Cl)c(Oc3cc(C4CC4)c(=O)[nH]n3)c(C(F)(F)F)c2)c(=O)[nH]c1=O` [Compound 65], the pEC50 in series [1] is 6.82. In series [2], the pEC50 was 5.98. Also, the pEC50 in series [3] was 5.39. In series [4], this compound gave a CLint scaled at 1 µM of 4.53 mL/min/kg, a half-life at 1 µM of 13 h and a hepatocyte CLint at 1 µM of 1.78 µL/min/1e6 cells. For the same compound, the “Human Hepatocyte Remaining Percentage @ 120 min” value in series [4] (1 µM) was 94%.

Turning to `Cc1nn(-c2cc(Cl)c(Oc3cc(C(C)C)c(=O)[nH]n3)c(Cl)c2)c(=O)[nH]c1=O` [Compound 35], the pEC50 in series [2] was 5.59. In series [4], the “Human In vitro Clint” value was 2.21 μL/min/10^6 cells, the “Human In vitro T1/2” value was found to be 10.4 h, the “Human Scale-up Clint” value is recorded as 5.63 mL/min/kg and the “Human Hepatocyte Remaining Percentage @ 120 min” value came out at 89%.
